Columns and labels:
[1] = system: wild-type (WT) rice plants, variety Xiushui 134; assay: Herbicide spraying for resistance identification, wild-type Xiushui 134; assay type: in vivo; settings: 50 mg/L (139 μM) spray
Procedure: (§1) Verifying the herbicide resistance of the above two genes (ZmHIR1 and SqHIR1): cloning these two genes, respectively, and overexpressing them in the rice variety Xiushui 134. The TO generation transgenic seedlings were sprayed with 50 mg/L (139 μM) herbicide isoxaflutole for resistance identification, and the results are shown in FIGS. 10-11.

[2] = system: wild-type Nipponbare rice; assay: Seed germination on ½ MS medium with isoxaflutole, wild-type Nipponbare; assay type: in vivo
Excerpt: (§2) In this study, the base editor mediates genetic transformation through Agrobacterium, and the recipient variety was Nipponbare (NIP). After obtaining TO transgenic plants, the genotype of the target site was identified by PCR and sequencing, and the mutant individuals were transplanted to the field and T1 generation seeds were harvested. In order to verify the resistance of the mutant to herbicides, the harvested T1 generation seeds were dehulled, disinfected, and then inoculated on ½ MS medium with different HPPD herbicides. We selected the herbicide isoxaflutole, and the final concentration was set to 400 nM, while the tolerance concentration of wild-type Nipponbare rice to isoxaflutole during the seed germination stage was about 100 nM. Seed germination and seedling growth status were observed and counted 10 days after inoculation. […] To further confirm its resistance, we transplanted the green seedlings of YX6 into the greenhouse and sprayed them with 100 μM isoxaflutole one month later. The tolerance concentration of wild-type Nipponbare rice to isoxaflutole during the seedling stage was about 40 μM.

[3] = system: rice YX6 mutant (OE-HIR1); assay: Herbicide spraying of plants, YX6 mutant; assay type: in vivo; settings: for rank order of resistance of the YX6 mutant (OE-HIR1) to different herbicides: comparison among herbicides sprayed
Excerpt: as §2
(§3) To further confirm the relationship between gene LOC_Os02g09720 and the herbicide isoxaflutole, we designed two different sgRNA targets in the coding region of gene LOC_Os02g09720 and knocked out the gene using CRISPR/Cas9 in the wild-type Nipponbare rice and YX6 resistant rice backgrounds. After obtaining TO transgenic plants, the two target regions were sequenced, and homozygous knockout plants were selected and sprayed with herbicides together with wild-type plants and YX6 resistant plants. The concentration of isoxaflutole was set to 40 μM. The phenotype was observed two weeks later. […] We named this gene HIR1 (HPPD INHIBITOR RESISTANCE 1), and its encoded protein is HIR1 protein. The amino acid sequence is shown in SEQ ID No.1. The genotype of the wild-type Nipponbare plant is HIR1, and the knockout plant is hir1.
(§4) In order to further determine the resistance strength of rice YX6 mutant (OE-HIR1), we set up three high concentration gradients of isoxaflutole to spray it (200 μM, 400 μM, 800 µM), with wild-type Nipponbare plants (HIR1) and wild-type Nipponbare HIR1 gene knockout plants (hir1) as controls. […] The tolerance range of rice YX6 mutant (OE-HIR1) to isoxaflutole may be higher, even reaching 1200-1500 μM, while the tolerance concentration of wild-type Nipponbare plants to isoxaflutole was about 40 μM, and its resistance is estimated to be increased by 30 times.
(§5) HPPD herbicides mainly include triketones, pyrazolones, isoxazolones, diketonitriles, and benzophenones. In order to determine whether the rice YX6 mutant (OE-HIR1) is resistant to other HPPD herbicides, we selected the herbicides: mesotrione, tembotrione, an unlisted quinotrione-methyl analog (Y13287), topramezone, and pyrasulfotole, and sprayed them with wild-type Nipponbare rice as the control.

[4] = system: resistant plant YX6 HIR1 knockout plant hir1 (YX6); assay: Herbicide spraying of plants, HIR1 knockout in YX6 background; assay type: in vivo, rice; settings: 40 μM spray, two weeks later, LOC_Os02g09720 knockout in YX6 background
Excerpt: as §3

[5] = system: transgenic plant numbered YX6 (T1 generation seeds); assay: Seed germination on ½ MS medium with isoxaflutole, YX6 T1 seeds; assay type: in vivo, rice; settings: 400 nM in ½ MS medium, 10 days after inoculation
Excerpt: as §2

[6] = system: wild-type Nipponbare plants (HIR1); assay: Herbicide spraying of plants, wild-type Nipponbare; assay type: in vivo, rice
Excerpt: as §2, §3, §4, §5

[7] = system: wild-type Nipponbare HIR1 knockout plant hir1 (NIP); assay: Herbicide spraying of plants, HIR1 knockout in wild-type background; assay type: in vivo, rice; settings: 40 μM spray, two weeks later, LOC_Os02g09720 knockout in wild-type background
Excerpt: as §3

[8] = system: transgenic plants (SqHIR1) in rice variety Xiushui 134; assay: Herbicide spraying of T0 transgenic seedlings overexpressing SqHIR1; assay type: in vivo; settings: 50 mg/L (139 μM) spray
Procedure: as §1

[9] = system: transgenic plants (ZmHIR1) in rice variety Xiushui 134; assay: Herbicide spraying of T0 transgenic seedlings overexpressing ZmHIR1; assay type: in vivo; settings: 50 mg/L (139 μM) spray
Procedure: as §1

[10] = 400 μM spray, YX6 mutant (OE-HIR1)

**Q.** Which phenotype after spraying [1] does the source give for `CS(=O)(=O)c1cc(C(F)(F)F)ccc1C(=O)c1cnoc1C1CC1` [isoxaflutole] here?
**A.** become dwarfed, yellow, and dry

**Q.** What about the “seed germination and seedling growth status” value ([2]; 400 nM in ½ MS medium, 10 days after inoculation, wild-type Nipponbare) of the same molecule?
**A.** obvious bleaching symptoms of phytotoxicity

**Q.** What about the “tolerance concentration during the seed germination stage” value ([2]; wild-type Nipponbare rice, seed germination stage) of the same molecule?
**A.** about 100 nM

**Q.** What about the phenotype after spraying ([3]; 40 μM spray, two weeks later, YX6 plants) of the same molecule?
**A.** not affected and grew normally

**Q.** What about the phenotype after spraying ([3]; 100 μM spray, after two weeks, YX6) of the same molecule?
**A.** not affected at all

**Q.** What about the phenotype after spraying ([3]; 800 μM spray, YX6 mutant (OE-HIR1)) of the same molecule?
**A.** could still grow normally

**Q.** And the “resistance increase versus wild-type Nipponbare” value ([3]; YX6 mutant (OE-HIR1) vs wild type tolerance about 40 μM, estimated)?
**A.** ~30 times

**Q.** And the tolerance range ([3]; YX6 mutant (OE-HIR1), 'may be higher, even reaching')?
**A.** 1200 to 1500 µM

**Q.** And the phenotype after spraying [4]?
**A.** bleached, withered, and died gradually

**Q.** And the “seed germination and seedling growth status” value [5]?
**A.** seedlings remained green normally

**Q.** What about the phenotype after spraying ([6]; 40 μM spray, two weeks later, wild-type plants) of the same molecule?
**A.** bleaching and wilting, but still survived

**Q.** What about the phenotype after spraying ([6]; 100 μM spray, after two weeks, wild-type Nipponbare) of the same molecule?
**A.** completely bleached and withered

**Q.** And the “tolerance concentration during the seedling stage” value ([6]; wild-type Nipponbare, spraying)?
**A.** about 40 μM

**Q.** And the phenotype after spraying [7]?
**A.** bleached, withered, and died gradually

**Q.** What about the phenotype after spraying [8] of the same molecule?
**A.** basically remained green, with normal plant height and good growth status

**Q.** What about the phenotype after spraying [9] of the same molecule?
**A.** basically remain green, with normal plant height and good growth status

**Q.** Which phenotype after spraying [3, 10] does the source give for `CS(=O)(=O)c1ccc(C(=O)C2C(=O)CCCC2=O)c([N+](=O)[O-])c1` [mesotrione] here?
**A.** had no phytotoxicity and could grow normally without bleaching

**Q.** What about the “rank order of resistance of the YX6 mutant (OE-HIR1) to different herbicides” value (“rank order … to different herbicides” for short) [3] of the same molecule?
**A.** sulfone pyrazone>topramezone≈tembotrione>mesotrione≈quinotrione-methyl analog

**Q.** And the phenotype after spraying ([6]; 400 μM spray, wild-type plants)?
**A.** had all bleached and suffered certain phytotoxicity

**Q.** With `Cc1nn(C)c(O)c1C(=O)c1ccc(C(F)(F)F)cc1S(C)(=O)=O` [pyrasulfotole] as the molecule, how does the phenotype after spraying [3, 10] read?
**A.** had no phytotoxicity and could grow normally without bleaching

**Q.** And the “rank order … to different herbicides” value [3]?
**A.** sulfone pyrazone>topramezone≈tembotrione>mesotrione≈quinotrione-methyl analog

**Q.** And the phenotype after spraying ([6]; 400 μM spray, wild-type plants)?
**A.** had all bleached and suffered certain phytotoxicity

**Q.** For `CS(=O)(=O)c1ccc(C(=O)C2C(=O)CCCC2=O)c(Cl)c1COCC(F)(F)F` [tembotrione], which phenotype after spraying [3, 10] is on record?
**A.** had no phytotoxicity and could grow normally without bleaching

**Q.** And the “rank order … to different herbicides” value [3]?
**A.** sulfone pyrazone>topramezone≈tembotrione>mesotrione≈quinotrione-methyl analog

**Q.** And the phenotype after spraying ([6]; 400 μM spray, wild-type plants)?
**A.** had all bleached and suffered certain phytotoxicity

**Q.** For `Cc1c(C(=O)c2cnn(C)c2O)ccc(S(C)(=O)=O)c1C1=NOCC1` [topramezone], which phenotype after spraying [3, 10] is on record?
**A.** had no phytotoxicity and could grow normally without bleaching

**Q.** And the “rank order … to different herbicides” value [3]?
**A.** sulfone pyrazone>topramezone≈tembotrione>mesotrione≈quinotrione-methyl analog

**Q.** And the phenotype after spraying ([6]; 400 μM spray, wild-type plants)?
**A.** had all bleached and suffered certain phytotoxicity

— patent publication US20250250581A1, “HERBICIDE-RESISTANT POLYPEPTIDE AND APPLICATION THEREOF” (SHANDONG SHUNFENG BIOTECHNOLOGY CO.LTD., priority 2022, published 2025)
